Legend:
[1] = test system: DfrA52; assay: NADPH oxidation followed at […] nm, nonlinear regression; assay type: biochemical, Escherichia phage vB_EcoM_BMB16; conditions: 100 uM NADPH; dihydrofolate 5-100 uM; 50 mM Tris-HCl, 50 mM KCl, pH 7.5; ~25 C
[2] = test system: DfrA43; assay: as above; assay type: biochemical; conditions: 100 uM NADPH; dihydrofolate 5-100 uM; 50 mM Tris-HCl, 50 mM KCl, pH 7.5; ~25 C

Nc1nc2c(c(=O)[nH]1)N=C(CNc1ccc(C(=O)N[C@@H](CCC(=O)O)C(=O)O)cc1)CN2 [dihydrofolate]
Km [1]: 167 ± 34.8 µM | Km [2]: 47.6 ± 21.6 µM

Source: PMC12466917, “Evolutionary selection of trimethoprim-resistant dfrA genes in lytic phages affects phage and host fitness during infection” (Science Advances, 2025)
